Test results published in patent publication US12036194B1, “Methods of administering solriamfetol to lactating women” (Axsome Malta Ltd., priority 2022, dated 2024).
Several values for one entry are separate records, joined by “and”; a condition that tells them apart may be missing. Equal entries are not always repeated. Structures can show the parent of a compound that is named as a salt.

How the values were obtained:
[1] = Phase 4 single-dose study: safety and tolerability (adverse events, vital signs, 12-lead ECG, C-SSRS); type: in vivo, human; details: for Subjects who discontinued due to AE / Subjects with Mild AE / Subjects with Moderate AE / Subjects with SAE / Subjects with an AE considered related to study drug / Subjects with an AE considered unrelated to study drug / Subjects with at least 1 AE: hydrochloride
Experimental: Pharmacokinetic analysis of breast milk obtained from both breasts (by pumping) was evaluated prior to dose administration and at intervals up to 72 hours postdose. Blood samples were also collected for plasma solriamfetol quantitation and PK analysis predose and at timepoints up to 72 hours postdose. Solriamfetol breast milk and plasma concentrations were measured using validated bioanalytical methods. Safety was assessed throughout the study by 12-lead ECG, vital sign measurements, the Columbia-Suicide Severity Rating Scale (C-SSRS), and the incidence of adverse events (AE).
Vital signs (blood pressure, pulse rate, temperature, and respiratory rate) were measured with the subject in a seated or supine position and resting for at least 5 minutes prior to taking the measurement. The dominant arm was used for blood pressure and pulse rate measurements. On Day 1, vital signs were collected at predose, and at approximately 2 (blood pressure and pulse) and 4 hours (blood pressure and pulse) postdose.
12-lead ECG was taken with the subject in a supine position and resting for at least 10 minutes prior to taking the measurement. On Day 1, ECGs were collected predose and at approximately 2 hours postdose.
Adverse events were monitored throughout the study by safety assessments, observations, and subject reporting, including the Safety FU telephone call 5-7 days (i.e., Days 9-11) after check-out from the study facility on Day 4, or ET.
The 12-lead ECGs were collected at Screening, Day −1 until Day 4. Single 12-lead ECG was obtained using an ECG machine that automatically calculated the heart rate and measured PR, QRS, QT, and corrected QT interval (QTc) intervals. Any abnormal safety assessments including ECG readings considered clinically significant in the medical and scientific judgment of the investigator were reported as an AE. The investigator had to review the ECG and document it in the source documents. Clinically significant abnormal ECG results reported during Screening were recorded as medical history and those reported after study drug were recorded as AEs.
Safety analyses were based on the Safety Population. The secondary endpoints for evaluating subject safety and tolerance were the incidence of reported AEs and the laboratory test results for all subjects.
Adverse events: Adverse events recorded in the electronic case report forms (eCRFs) were coded to SOC and PT using the Medical Dictionary for Regulatory Activities (MedDRA). Treatment-emergent adverse events (TEAEs) are defined as any event with onset date on or after the first dose of study drug or any ongoing event that worsened in severity after the date of the first dose of study drug or any event that was present at baseline but was subsequently considered drug-related by the investigator through the end of the study. The incidence of TEAEs were presented by severity, relationship to study drug, start and end date, seriousness, and outcome. The investigator assessed the severity and relatedness of each AE to study drug. Columbia-Suicide Severity Rating Scale (C-SSRS) data were summarized at scheduled visits and were listed. Other safety analyses were performed as appropriate.
12 Lead ECG: The number and percentage of subjects who had the following postbaseline clinically notable ECG interval abnormality was summarized: Ventricular rate >100 beats/min or ≤60 beats/min; PR interval ≥200 msec or ≤120 msec; QRS duration ≥100 msec or ≤80 msec; QT interval ≥440 msec or ≤350 msec; QTc Bazett and QTc Fredericia ≥470 msec or ≤330 msec; RR interval ≥1200 msec or ≤600 msec; and QTc Bazette and QTc Fredericia increase from study Baseline Value >30 msec. […]

[2] = animals tested; cited from earlier work
[3] = Solriamfetol 150 mg single dose, N = 6
[4] = Solriamfetol 150 mg single dose, N = 6, listed as solriamfetol
[5] = any post-baseline visit/timepoint, 150 mg, N = 6

## NC(=O)OC[C@H](N)Cc1ccccc1 [Solriamfetol, (R)-2-amino-3-phenylpropyl carbamate (APC) hydrochloride]
[1]; 150 mg single dose, N = 6
  abnormal clinically significant ECG findings: No abnormal clinically significant ECG findings
  number of TEAEs of mild intensity (dizziness, headache, agitation; related to study drug): 3 TEAEs
  number of TEAEs of moderate intensity (headache; unrelated to study drug): 1 TEAE
  outcome of TEAEs: resolved
  subjects reporting suicidal ideation or event under Columbia-Classification Algorithm for Suicide Assessment: None
  subjects with abnormal, clinically significant laboratory findings: None
  total number of TEAEs reported: 4 TEAEs
[1]; [3]
  Subjects who discontinued due to AE considered related to study drug: 0 n (%)
  Subjects who discontinued due to AE considered unrelated to study drug: 0 n (%)
  Subjects with Fatal AE: 0 n (%)
  Subjects with Life-threatening AE: 0 n (%)
  Subjects with SAE considered related to study drug: 0 n (%)
  Subjects with SAE considered unrelated to study drug: 0 n (%)
  Subjects with Severe AE: 0 n (%)
  TEAE, PT Agitation: 1 (16.7) n (%)
  TEAE, PT Dizziness: 1 (16.7) n (%)
  TEAE, PT Headache: 2 (33.3) n (%)
  TEAE, SOC Nervous system disorders: 2 (33.3) n (%)
  TEAE, SOC Psychiatric disorders: 1 (16.7) n (%)
  Subjects who discontinued due to AE: 0 n (%)
  Subjects with Mild AE: 2 (33.3) n (%)
  Subjects with Moderate AE: 1 (16.7) n (%)
  Subjects with SAE: 0 n (%)
  Subjects with an AE considered related to study drug: 2 (33.3) n (%)
  Subjects with an AE considered unrelated to study drug: 1 (16.7) n (%)
  Subjects with at least 1 AE: 3 (50.0) n (%)
[1]; [4]
  Subjects who discontinued due to AE: None
  Subjects with Mild AE: 2 (33.3%) n (%)
  Subjects with Moderate AE: 1 (16.7%) n (%)
  Subjects with SAE: No SAEs
  Subjects with an AE considered related to study drug: 2 (33.3%) n (%)
  Subjects with an AE considered unrelated to study drug: 1 (16.7%) n (%)
  Subjects with at least 1 AE: 3 (50%) n (%) and 3 n (%)
[1]; [5]
  Clinically notable Body temperature: Change in body temperature > 1.8% from the subjects baseline temperature recordings: 1 (16.7) n (%)
  Clinically notable Diastolic blood pressure: Average diastolic blood pressure ≥ 95 mmHg or ≤ 60 mmHg: 2 (33.3) n (%)
  Clinically notable ECG mean heart rate: Ventricular rate ≥ 100 beats/min or ≤ 60 beats/min: 2 (33.3) n (%)
  Clinically notable PR interval, single beat: PR interval ≥ 200 msec or ≤ 120 msec: 2 (33.3) n (%)
  Clinically notable Pulse rate: Pulse change by > 20% from the study baseline value/recordings: 2 (33.3) n (%)
  Clinically notable QRS duration, single beat: QRS duration ≥ 100 msec or ≤ 80 msec: 4 (66.7) n (%)
  Clinically notable QT interval, single beat: QT interval ≥ 440 msec or ≤ 350 msec: 1 (16.7) n (%)
  Clinically notable Systolic blood pressure: Blood pressure change by > 20% from the study baseline value/recordings: 1 (16.7) n (%)
[1]; baseline to Day 1 2 hours and 4 hours, Day 2, Day 3, Day 4
  changes in vital sign parameters from baseline: no major changes
[1]; baseline to Day 1 predose and 2 hours, Day 2, Day 3, Day 4
  changes in ECG parameters from baseline: no major changes
[1]; single oral dose 150 mg, 6 healthy postpartum women
  overall safety and tolerability: safe and well tolerated
[2]
  absorption and oral bioavailability: rapid absorption and high oral bioavailability
  exposure (maximum serum concentration and AUC) versus dose: dose-proportional exposure
